This test addresses T1, Toll-like receptor 7 (Homo sapiens, UniProt Q9NYK1).
T1 sequence (Q9NYK1 whole entry): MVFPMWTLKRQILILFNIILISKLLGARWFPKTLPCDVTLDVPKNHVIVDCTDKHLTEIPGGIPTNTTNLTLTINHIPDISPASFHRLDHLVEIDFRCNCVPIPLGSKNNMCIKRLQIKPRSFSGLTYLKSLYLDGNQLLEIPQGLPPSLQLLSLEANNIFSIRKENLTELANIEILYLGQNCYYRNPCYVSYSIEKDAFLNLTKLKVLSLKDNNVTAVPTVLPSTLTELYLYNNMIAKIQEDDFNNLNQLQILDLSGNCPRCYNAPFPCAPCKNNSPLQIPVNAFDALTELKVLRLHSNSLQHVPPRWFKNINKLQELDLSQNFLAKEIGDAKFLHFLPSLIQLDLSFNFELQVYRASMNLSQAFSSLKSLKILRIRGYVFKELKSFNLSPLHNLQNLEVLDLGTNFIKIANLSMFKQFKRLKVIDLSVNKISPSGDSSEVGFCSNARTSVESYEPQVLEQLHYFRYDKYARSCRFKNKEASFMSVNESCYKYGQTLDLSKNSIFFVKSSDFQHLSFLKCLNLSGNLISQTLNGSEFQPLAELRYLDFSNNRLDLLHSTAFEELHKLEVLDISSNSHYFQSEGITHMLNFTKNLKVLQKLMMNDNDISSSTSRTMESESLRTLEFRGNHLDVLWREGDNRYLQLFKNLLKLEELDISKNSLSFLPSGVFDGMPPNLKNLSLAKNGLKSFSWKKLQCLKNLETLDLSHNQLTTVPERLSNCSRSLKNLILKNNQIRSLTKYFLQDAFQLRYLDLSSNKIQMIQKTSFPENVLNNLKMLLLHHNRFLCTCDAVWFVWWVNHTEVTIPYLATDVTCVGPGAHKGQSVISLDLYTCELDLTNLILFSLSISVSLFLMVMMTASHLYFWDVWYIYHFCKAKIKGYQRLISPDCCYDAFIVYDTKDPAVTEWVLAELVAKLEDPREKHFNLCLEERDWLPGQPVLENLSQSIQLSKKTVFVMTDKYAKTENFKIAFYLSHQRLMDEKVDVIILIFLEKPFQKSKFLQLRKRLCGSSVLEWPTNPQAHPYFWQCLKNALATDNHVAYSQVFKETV
The test can be described thus: Agonist activity at TLR7 in HEK-Blue hTLR7 cells expressing NF-kappaB/AP-1 inducible SEAP reporter gene using Quanti-blue as substrate preincubated for 20 hrs followed by substrate addition and measured after 1 hr by spectrophotometric analysis. Type of test: cell-based.

pEC50: −log10 of the molar value.

Consider `CCOCc1nc2c(N)nc(C)c(Sc3ccc(CN(C)C)c(O)c3)c2[nH]1`, for which the negative-log EC50 (pEC50) (usually the negative decadic logarithm of the EC50, by convention in mol/L) was 8.00.

Source of the values: ChEMBL document CHEMBL6103603, “Novel Imidazo[4,5-c]pyridine Compounds as TLR7 Agonists for Treating Cancer” (ACS Med Chem Lett, 2025).
